Test results as given in patent US4670469A, “Hydroxamic acid and pharmaceutical preparations containing the same” (VEB Arzneimittelwerk Dresden, priority 1983, dated 1987).
pIC50: −log10 of the molar value. Read-outs that look alike come from different tables or passages of the source.

Tests used:
[1] = test system: guinea pig lung strips; experiment: Arachidonic acid-induced spasm of isolated guinea pig lung strips; details: active substance 100 μM
Excerpt: They display in animal experimental tests on isolated lung strips from guinea pigs a pronounced antiasthmatic effect. The testing of the mentioned pharmacological characteristics follows according to the principles of measuring techniques known from the literature, which come into use in modified form (G. M. Drazen et al. G. Clin. Invest. 63 1 (1979); M. W. Schneider and G. M. Drazen Amer. Rev. Resp. Dis. 121 835 (1980); S. S. Yen and W. Kreutner, Agents Actions 10 274 (1980); S. S. Yen Prostaglandins 22, 183 (1981)).
The compounds of Formula I effect a significant restraint on arachidonic acid-induced bronchial constriction (1.5.10^-5 M arachidonic acid) in the guinea pig lung preparations (see, Example 6). Also with the addition of a cyclooxygenase inhibitor to the measuring system this effect was unaltered, and to some extent stronger, detectably. These experimental results permit without a doubt the conclusion that the compounds of Formula I involve inhibitors of the lipoxygerase pathway of arachidonic utilization, and the above described pharmacological effect is grounded upon this mechanism of activity.
(§1) The testing of the compounds for antiasthmatic activity follows on isolated lung strips and isolated tracheal rings from guinea pigs according to measuring methods known from the literature (supra) in modified form. The measurements follow in thermostatically controlled organ bath, isotonically using a contraction measuring arrangement with lift receiver, measuring coil, measuring amplifier (inductive measurement with the aid of a high frequency resonant circuit). The gasification follows with air. The suspension solution has the following composition: 39.46 g NaCl, 2.2 g KCl, 6.07 g Tris, 1.0 g CaCl2, 9.9 g glucose, 1.0 ml saturated MgCl2 -solution, 43 ml 1N HCl; pH 7.4.
(a) Activity on spasm of the guinea pig lung strips, induced by exogenous arachidonic acid.
The spasm is triggered by rising concentrations of arachidonic acid (concentrated solution in ethanol, stored in N2 -atmosphere) and is cumulatively measured. […] The active substance caused a highly significant displacement to the right of the Dose-Activity curves for arachidonic acid, visible by a clear elevation of the ED50 - and ED84 -values. The effect can be described through the following activity index: [formula] In an analogous manner, the index i84 is determined from the measured data.

[2] = target: T1, lipoxygenase from rabbit reticulocytes (Oryctolagus cuniculus, UniProt P12530); experiment: Inhibition of the activity of lipoxygenase from rabbit reticulocytes (oxygen consumption, Clark electrode); type: biochemical
T1 construct: The lipoxygenase from rabbit reticulocytes is obtained in electrophoretically and immunologically pure form; from tissue; host or cells: rabbit reticulocytes
T1 sequence (P12530 1-663): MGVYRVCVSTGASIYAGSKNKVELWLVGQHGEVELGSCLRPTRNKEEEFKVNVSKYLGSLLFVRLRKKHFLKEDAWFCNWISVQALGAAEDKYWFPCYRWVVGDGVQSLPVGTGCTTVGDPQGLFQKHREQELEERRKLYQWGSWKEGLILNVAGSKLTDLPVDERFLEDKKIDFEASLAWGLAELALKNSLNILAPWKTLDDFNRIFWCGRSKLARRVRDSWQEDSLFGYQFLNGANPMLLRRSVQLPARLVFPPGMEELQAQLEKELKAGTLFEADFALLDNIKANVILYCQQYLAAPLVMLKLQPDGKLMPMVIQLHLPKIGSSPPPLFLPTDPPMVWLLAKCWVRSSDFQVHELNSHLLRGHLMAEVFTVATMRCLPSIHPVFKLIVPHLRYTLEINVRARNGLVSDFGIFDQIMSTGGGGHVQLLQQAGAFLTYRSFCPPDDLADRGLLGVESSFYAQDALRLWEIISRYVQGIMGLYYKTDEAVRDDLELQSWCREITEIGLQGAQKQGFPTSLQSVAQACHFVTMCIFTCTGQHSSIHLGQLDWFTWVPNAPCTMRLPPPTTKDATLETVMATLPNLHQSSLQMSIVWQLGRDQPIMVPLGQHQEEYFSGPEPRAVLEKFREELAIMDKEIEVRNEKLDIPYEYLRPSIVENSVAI
Procedure: The lipoxygenase from rabbit reticulocytes was obtained in electrophoretically and immunologically pure form according to a technique known from the literature (S. M. Rapoport et al. Methods in Enzymology 71, 430 (1981)). The determination of lipoxygenase activity follows at 25° C. through the polarographic measurement of the oxygen consumption by means of Clark Electrode in a standardized system.
Through variation of the substance concentrations, the titration curves of the inhibition and therefrom the inhibition concentrations (I-value) of the compounds can be determined.
The testing of compounds for antiasthmatic, antiallergenic, inflammation-inhibiting and antithrombotic activity on the basis on the inhibition of the lipoxygenase reaction of the arachidonic acid cascade follows in a molecular/pharmacological test system. […] The lipoxygenase from rabbit reticulocytes is obtained in electrophoretically and immunologically pure form according to the techniques described in the literature (supra). The determination of the lipoxygenase activity follows at 25° C. through the polorographic measurement of oxygen consumption by means of a Clark-electrode in the following system: 0.1M potassiumphosphate, pH 7.4, with 0.2 percent sodium cholate and 0.53 mM linoleic acid. The enzyme concentration in the measurement preparation came to 25 nM. The compounds to be tested are dissolved in methylglycol (freshly distilled in a vacuum) and pre-incubated for 15 minutes at the measuring temperature in the absence of sodium cholate and linoleic acid. […] The enzyme reaction is started by the addition of sodium cholate and linoleic acid.

[3] = target: lipoxygenase from peas; experiment: Inhibition of lipoxygenase from peas; type: biochemical; details: read-out: I50
Procedure: The inhibition of thrombocyte aggregation is likewise ascribed to the inhibition of lipoxygenase in the cells. It has thus been shown that the arachidonate-lipoxygenase activity of a microsome-free lysate of human thrombocyte concentrates is inhibited to the extent of 100% by means of 0.25 mM salicylhydroxamic acid. Moreover, it has been shown that also a series of further lipoxygenases are inhibited by means of the here described hydroxamic acids. The lipoxygenase from soybeans reacts the most insensitive, i.e. it is inhibited by means of 1 mM salicylhydroxamic acid at pH 7.4 to an extent of 60% and by means of 0.4 mM 2-hydroxy-1-napthylhydroxamic acid to an extent of 54%. In contrast, for the lipoxygenase from peas which come closer in their characteristics to human lipoxygenase, the following I50 -values are provided: salicyl hydroxamic acid, 5 μM, 2-hydroxy-1-napthylhydroxamic acid, 2 μM, 2(2'-napthoxy)-acethydroxamic acid, 2 μM. Moreover it has been shown that the formation lipoxygenase products of arachidonic acid in in vitro cultivated aorta endothelial cells of calves is hindered through 0.1 mM 2-hydroxy-1-napthylhydroxamic acids.

[4] = test system: guinea pig trachia; experiment: Carbachol-induced spasm of guinea pig trachea; details: Cavia porcellus; spasm triggered by 3.9 μM carbachol; read-out: active substance concentration at which strong to very strong dilatation was clearly determinable
Excerpt: as §1
(b) Activity on the carbachol-induced spasm of guinea pig trachia
The spasms are triggered by 3.9 μM carbachol.

Row | SMILES | activity index i50 (displacement of arachidonic acid ED50) [1] | activity index i84 (displacement of arachidonic acid ED84) [1] | pIC50 ([2]; 25° C., pH 7.4, 0.53 mM linoleic acid, 15 min pre-incubation, read-out: I50) | IC84 ([2]; 25° C., pH 7.4, 0.53 mM linoleic acid, 15 min pre-incubation, read-out: I84) [µM] | pIC50 [3] | minimal effective concentration [4] [µM] | pIC50 [2]
1 | O=C(COc1ccc2ccccc2c1)NO [2(2'-naphthoxy)-acethydroxamic acid] | 5.8 | 7.1 | 5.60 | 9 | 5.70 | 50 | 
2 | O=C(NO)c1ccccc1O [salicylhydroxamic acid] | 1.9 | 8.5 |  |  | 5.30 |  | 4.70
